Test results as given in patent publication EP4722207A1, “OXOISOINDOLINYL-SUBSTITUTED TETRAHYDROPYRIMIDINEDIONE DERIVATIVE AND USE THEREOF” (Gluetacs Therapeutics (Shanghai) Co., Ltd., priority 2023, dated 2024).

Legend:
MM.1S = assay: Cell viability assay (CellTiter-Meiluncell Luminescent), tumor cell proliferation, MM.1S; settings: Homo sapiens, MM1.S, 96 h; for inhibition at 0.01 µM: read-out: Inhibition Rate at 10 nM (%); for inhibition at 0.5 µM: read-out: Inhibition Rate at 500 nM (%)
IKZF3 = molecular target: T1, IKZF3 (Homo sapiens, UniProt Q96SW2+Q9UKT9); assay: Western-blot assay, substrate protein degradation in hPBMCs: IKZF3; type: cell-based; settings: 24 hours of compound treatment, 50 nM and 500 nM
T1 construct: effects of the compounds of the present disclosure on the expression of target proteins in cells; endogenous in cells; host or cells: human PBMCs (hPBMCs)

IKZF2 = molecular target: T2, IKZF2 (Homo sapiens, UniProt Q96SW2+Q9UKS7); assay: Western-blot assay, substrate protein degradation in hPBMCs: IKZF2; type: cell-based; settings: 24 hours of compound treatment, 50 nM and 500 nM
T2 construct: effects of the compounds of the present disclosure on the expression of target proteins in cells; endogenous in cells; host or cells: human PBMCs (hPBMCs)

H292 = assay: Cell viability assay (CellTiter-Meiluncell Luminescent), tumor cell proliferation, H292; settings: Homo sapiens, NCI-H292, 96 h; for inhibition at 0.01 µM: read-out: Inhibition Rate at 10 nM (%); for inhibition at 0.5 µM: read-out: Inhibition Rate at 500 nM (%)
Procedure: (§1) The tumor cells used herein were cultured in a cell culture medium listed in table 2 at 37°C in an incubator with 5% CO2. Prior to experimentation, all cell lines used were correctly identified by STR profiling, and tested negative for mycoplasma contamination using a mycoplasma detection kit through routine screenings.
(§2) On the following day, the test compounds of the present disclosure were subjected to serial dilution. […] Subsequently, 0.5 µL of the test compound dilution was transferred into the 96-well plate containing the cells, with each well containing 100 µL of cell culture medium. […] Into the 96-well plate, the diluted test compounds and corresponding detection reagents were added, resulting in final test compound concentrations of 500 nM and 10 nM, respectively. The experimental procedure is described below using the diluted 2 µM test compound as an example.
(§3) After the cells were treated with the compounds of the present disclosure for a specified period, the cell viability assay reagent was added to the culture medium according to the kit's instructions to determine cell viability. […] All controls were treated using the same procedure as the compounds of the present disclosure. The growth inhibition curves for the compounds of the present disclosure were plotted using Prism GraphPad software, and the IC50 values were calculated therefrom.

GSPT1 = molecular target: T3, GSPT1 (Homo sapiens, UniProt P15170+Q96SW2); assay: Western-blot assay, substrate protein degradation in hPBMCs: GSPT1; type: cell-based; settings: 24 hours of compound treatment, 50 nM and 500 nM
T3 construct: effects of the compounds of the present disclosure on the expression of target proteins in cells; endogenous in cells; host or cells: human PBMCs (hPBMCs)

CK1α = molecular target: T4, CK1α (Homo sapiens, UniProt P48729+Q96SW2); assay: Western-blot assay, substrate protein degradation in hPBMCs: CK1α; type: cell-based; settings: 24 hours of compound treatment, 50 nM and 500 nM
T4 construct: effects of the compounds of the present disclosure on the expression of target proteins in cells; endogenous in cells; host or cells: human PBMCs (hPBMCs)

WEE1 = molecular target: T5, WEE1 (Homo sapiens, UniProt P30291+Q96SW2); assay: Western-blot assay, substrate protein degradation in hPBMCs: WEE1; type: cell-based; settings: 24 hours of compound treatment, 50 nM and 500 nM
T5 construct: effects of the compounds of the present disclosure on the expression of target proteins in cells; endogenous in cells; host or cells: human PBMCs (hPBMCs)

MDA-MB-231 = assay: Cell viability assay (CellTiter-Meiluncell Luminescent), tumor cell proliferation, MDA-MB-231; settings: Homo sapiens, MDA-MB-231, 96 h; for inhibition at 0.01 µM: read-out: Inhibition Rate at 10 nM (%); for inhibition at 0.5 µM: read-out: Inhibition Rate at 500 nM (%)
IKZF1 = molecular target: T6, IKZF1 (Homo sapiens, UniProt Q13422+Q96SW2); assay: Western-blot assay, substrate protein degradation in hPBMCs: IKZF1; type: cell-based; settings: 24 hours of compound treatment, 50 nM and 500 nM
T6 construct: effects of the compounds of the present disclosure on the expression of target proteins in cells; endogenous in cells; host or cells: human PBMCs (hPBMCs)

H2228 = assay: Cell viability assay (CellTiter-Meiluncell Luminescent), tumor cell proliferation, H2228; settings: Homo sapiens, NCI-H2228, 96 h; for inhibition at 0.01 µM: read-out: Inhibition Rate at 10 nM (%); for inhibition at 0.5 µM: read-out: Inhibition Rate at 500 nM (%)
Procedure: as §1, §2, §3

MV-4-11 = assay: Cell viability assay (CellTiter-Meiluncell Luminescent), tumor cell proliferation, MV-4-11; settings: Homo sapiens, MV4-11, 96 h; for inhibition at 0.01 µM: read-out: Inhibition Rate at 10 nM (%); for inhibition at 0.5 µM: read-out: Inhibition Rate at 500 nM (%)
Procedure: as §1, §2, §3

T1 sequence (Q9UKT9 whole entry): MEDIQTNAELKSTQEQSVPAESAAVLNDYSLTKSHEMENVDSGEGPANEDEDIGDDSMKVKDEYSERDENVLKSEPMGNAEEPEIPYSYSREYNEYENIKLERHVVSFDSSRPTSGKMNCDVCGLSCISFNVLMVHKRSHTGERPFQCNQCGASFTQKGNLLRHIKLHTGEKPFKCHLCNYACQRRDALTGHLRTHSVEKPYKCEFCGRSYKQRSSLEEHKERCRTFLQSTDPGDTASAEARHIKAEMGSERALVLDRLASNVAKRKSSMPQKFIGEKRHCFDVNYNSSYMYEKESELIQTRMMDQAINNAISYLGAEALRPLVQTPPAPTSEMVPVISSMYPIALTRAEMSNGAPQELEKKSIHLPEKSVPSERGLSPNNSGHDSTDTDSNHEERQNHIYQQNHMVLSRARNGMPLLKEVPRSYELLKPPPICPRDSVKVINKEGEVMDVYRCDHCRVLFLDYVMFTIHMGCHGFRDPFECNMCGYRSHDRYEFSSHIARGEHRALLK
T1 sequence (Q96SW2 whole entry): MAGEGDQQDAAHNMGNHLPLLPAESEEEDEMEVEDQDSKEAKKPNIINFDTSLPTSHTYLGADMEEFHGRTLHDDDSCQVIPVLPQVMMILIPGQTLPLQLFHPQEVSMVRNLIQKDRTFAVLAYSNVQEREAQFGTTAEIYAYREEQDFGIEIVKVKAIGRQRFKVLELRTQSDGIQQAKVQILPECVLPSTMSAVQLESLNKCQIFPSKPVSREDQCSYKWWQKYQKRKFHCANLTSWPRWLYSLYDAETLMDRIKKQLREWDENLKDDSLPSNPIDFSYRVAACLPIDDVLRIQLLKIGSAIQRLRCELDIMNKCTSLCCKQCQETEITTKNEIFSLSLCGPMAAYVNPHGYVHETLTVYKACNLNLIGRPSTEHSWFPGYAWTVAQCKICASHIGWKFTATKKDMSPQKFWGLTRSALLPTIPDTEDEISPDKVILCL
T1 sequence (Q16531 whole entry partner): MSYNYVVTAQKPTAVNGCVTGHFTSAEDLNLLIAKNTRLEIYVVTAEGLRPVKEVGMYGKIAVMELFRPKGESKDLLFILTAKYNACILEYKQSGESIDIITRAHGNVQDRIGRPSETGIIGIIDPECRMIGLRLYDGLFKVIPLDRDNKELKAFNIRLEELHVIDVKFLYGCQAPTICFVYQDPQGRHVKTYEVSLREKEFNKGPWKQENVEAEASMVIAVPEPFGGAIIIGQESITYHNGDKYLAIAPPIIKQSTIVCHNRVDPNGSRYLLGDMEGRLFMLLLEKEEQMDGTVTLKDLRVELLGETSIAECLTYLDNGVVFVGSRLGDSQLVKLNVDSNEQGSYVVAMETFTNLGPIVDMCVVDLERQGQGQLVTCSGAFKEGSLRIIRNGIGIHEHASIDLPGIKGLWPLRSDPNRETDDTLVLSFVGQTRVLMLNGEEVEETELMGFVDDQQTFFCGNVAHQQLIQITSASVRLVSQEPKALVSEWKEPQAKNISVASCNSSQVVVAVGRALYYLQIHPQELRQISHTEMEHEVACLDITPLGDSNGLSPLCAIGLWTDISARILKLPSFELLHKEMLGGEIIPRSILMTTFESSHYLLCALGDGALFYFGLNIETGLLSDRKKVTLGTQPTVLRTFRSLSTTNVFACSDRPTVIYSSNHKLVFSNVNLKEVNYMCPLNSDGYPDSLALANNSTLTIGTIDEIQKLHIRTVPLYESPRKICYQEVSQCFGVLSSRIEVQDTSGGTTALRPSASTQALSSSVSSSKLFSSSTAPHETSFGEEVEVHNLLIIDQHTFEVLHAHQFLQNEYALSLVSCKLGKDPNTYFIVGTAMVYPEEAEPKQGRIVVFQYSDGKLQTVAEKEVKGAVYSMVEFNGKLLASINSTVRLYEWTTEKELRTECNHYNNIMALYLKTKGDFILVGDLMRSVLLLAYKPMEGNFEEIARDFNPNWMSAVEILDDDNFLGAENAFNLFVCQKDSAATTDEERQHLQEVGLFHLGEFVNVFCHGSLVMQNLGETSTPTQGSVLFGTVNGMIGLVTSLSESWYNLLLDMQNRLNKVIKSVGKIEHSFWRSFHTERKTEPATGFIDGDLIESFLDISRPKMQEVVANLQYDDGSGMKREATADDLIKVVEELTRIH
T4 sequence (P48729 whole entry): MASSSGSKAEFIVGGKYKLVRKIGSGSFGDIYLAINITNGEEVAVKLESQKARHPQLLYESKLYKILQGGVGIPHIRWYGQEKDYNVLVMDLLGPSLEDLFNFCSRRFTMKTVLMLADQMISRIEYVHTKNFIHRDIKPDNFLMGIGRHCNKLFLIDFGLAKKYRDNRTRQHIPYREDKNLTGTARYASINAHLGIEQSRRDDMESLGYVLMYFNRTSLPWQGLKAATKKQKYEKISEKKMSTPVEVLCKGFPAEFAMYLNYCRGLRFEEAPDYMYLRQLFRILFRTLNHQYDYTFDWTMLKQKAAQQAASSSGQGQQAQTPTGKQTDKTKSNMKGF
T4 sequence (Q96SW2 whole entry): as the sequence (Q96SW2 whole entry) above
T4 sequence (Q16531 whole entry partner): as the sequence (Q16531 whole entry partner) above
T2 sequence (Q9UKS7 whole entry): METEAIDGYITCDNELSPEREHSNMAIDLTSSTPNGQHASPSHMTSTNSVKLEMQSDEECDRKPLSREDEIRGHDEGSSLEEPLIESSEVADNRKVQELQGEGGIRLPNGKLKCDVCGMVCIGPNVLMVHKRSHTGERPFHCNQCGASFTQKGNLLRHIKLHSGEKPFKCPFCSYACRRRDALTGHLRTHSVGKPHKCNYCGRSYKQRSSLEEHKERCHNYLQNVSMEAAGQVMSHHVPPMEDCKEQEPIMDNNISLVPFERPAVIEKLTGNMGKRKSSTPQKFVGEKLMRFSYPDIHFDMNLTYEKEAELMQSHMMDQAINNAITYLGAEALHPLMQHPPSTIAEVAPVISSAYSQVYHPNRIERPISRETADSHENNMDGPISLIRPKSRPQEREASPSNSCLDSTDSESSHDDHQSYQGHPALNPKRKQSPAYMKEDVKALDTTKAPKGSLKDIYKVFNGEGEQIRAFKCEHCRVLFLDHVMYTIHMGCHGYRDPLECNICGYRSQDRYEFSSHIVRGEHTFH
T2 sequence (Q96SW2 whole entry): as the sequence (Q96SW2 whole entry) above
T2 sequence (Q16531 whole entry partner): as the sequence (Q16531 whole entry partner) above
T6 sequence (Q13422 whole entry): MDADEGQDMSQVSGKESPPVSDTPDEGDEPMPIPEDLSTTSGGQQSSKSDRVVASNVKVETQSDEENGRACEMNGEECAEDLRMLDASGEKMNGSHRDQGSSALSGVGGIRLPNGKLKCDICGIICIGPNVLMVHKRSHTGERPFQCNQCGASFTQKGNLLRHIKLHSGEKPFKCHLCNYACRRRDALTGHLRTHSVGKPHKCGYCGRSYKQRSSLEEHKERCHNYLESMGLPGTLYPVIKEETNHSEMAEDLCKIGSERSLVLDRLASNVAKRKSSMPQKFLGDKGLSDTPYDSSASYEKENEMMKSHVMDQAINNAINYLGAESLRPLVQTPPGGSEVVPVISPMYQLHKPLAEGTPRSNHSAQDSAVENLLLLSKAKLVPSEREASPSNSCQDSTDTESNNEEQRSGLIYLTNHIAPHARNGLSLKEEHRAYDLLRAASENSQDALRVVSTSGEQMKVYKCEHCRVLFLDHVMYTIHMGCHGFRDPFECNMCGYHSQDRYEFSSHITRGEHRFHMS
T6 sequence (Q96SW2 whole entry): as the sequence (Q96SW2 whole entry) above
T6 sequence (Q16531 whole entry partner): as the sequence (Q16531 whole entry partner) above
T3 sequence (P15170 whole entry): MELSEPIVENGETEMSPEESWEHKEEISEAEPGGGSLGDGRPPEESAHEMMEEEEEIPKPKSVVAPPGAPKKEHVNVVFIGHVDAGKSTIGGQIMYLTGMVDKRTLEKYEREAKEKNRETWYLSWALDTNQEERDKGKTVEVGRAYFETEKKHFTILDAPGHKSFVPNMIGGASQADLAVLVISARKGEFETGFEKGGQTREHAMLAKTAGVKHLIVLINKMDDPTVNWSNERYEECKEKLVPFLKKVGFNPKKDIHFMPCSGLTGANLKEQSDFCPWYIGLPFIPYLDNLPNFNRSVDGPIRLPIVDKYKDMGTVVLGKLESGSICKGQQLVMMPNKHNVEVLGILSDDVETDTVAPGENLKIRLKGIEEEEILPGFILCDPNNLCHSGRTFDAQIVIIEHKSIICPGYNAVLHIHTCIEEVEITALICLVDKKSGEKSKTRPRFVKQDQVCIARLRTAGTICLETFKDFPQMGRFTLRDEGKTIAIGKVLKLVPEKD
T3 sequence (Q96SW2 whole entry): as the sequence (Q96SW2 whole entry) above
T3 sequence (Q16531 whole entry partner): as the sequence (Q16531 whole entry partner) above

| SMILES | inhibition at 0.01 µM (MM.1S) [%] | inhibition at 0.5 µM (MM.1S) [%] | substrate protein remaining % IKZF3 (IKZF3) | substrate protein remaining % IKZF2 (IKZF2) | inhibition at 0.01 µM (H292) [%] | inhibition at 0.5 µM (H292) [%] | substrate protein remaining % GSPT1 (GSPT1) | substrate protein remaining % CK1α (CK1α) | substrate protein remaining % WEE1 (WEE1) | inhibition at 0.01 µM (MDA-MB-231) [%] | inhibition at 0.5 µM (MDA-MB-231) [%] | substrate protein remaining % IKZF1 (IKZF1) | inhibition at 0.01 µM (H2228) [%] | inhibition at 0.5 µM (H2228) [%] | inhibition at 0.01 µM (MV-4-11) [%] | inhibition at 0.5 µM (MV-4-11) [%] |
| --- | --- | --- | --- | --- | --- | --- | --- | --- | --- | --- | --- | --- | --- | --- | --- | --- |
| Cc1sc2ncnc(N3CCCN(Cc4ccc5c(c4)CN(N4CCC(=O)NC4=O)C5=O)CC3)c2c1C [GT-08062, 1-(5-((4-(5,6-dimethylthieno[2,3-d]pyrimidin-4-yl)-1,4-diazepan-1-yl)methyl)-1-oxoisoindolin-2-yl)dihydropyrimidine-2,4(1H,3H)-dione] | 30 to 42 | 30 to 42 | A (0% ≤ substrate protein remaining % ≤ 80%) | A (0% ≤ substrate protein remaining % ≤ 80%) | 20 to 40 | 40 to 60 | B (80%< substrate protein remaining %≤ 100%) | B (80%< substrate protein remaining %≤ 100%) | B (80%< substrate protein remaining %≤ 100%) | 15 to 18 | 25 to 40 | B (80%< substrate protein remaining %≤ 100%) | 25 to 30 | 30 to 40 |  |  |
| O=C1CCN(N2Cc3cc(CN4CC=C(c5cccc(F)c5Cl)CC4)ccc3C2=O)C(=O)N1 [GT-08055, 1-(5-((4-(2-chloro-3-fluorophenyl)-3,6-dihydropyridin-1(2H)-yl)methyl)-1-oxoisoindolin-2-yl)dihydropyrimidine-2,4(1H,3H)-dione] | -10 to -5 | 80 to 100 | A (0% ≤ substrate protein remaining % ≤ 80%) | A (0% ≤ substrate protein remaining % ≤ 80%) |  |  | A (0% ≤ substrate protein remaining % ≤ 80%) | A (0% ≤ substrate protein remaining % ≤ 80%) | A (0% ≤ substrate protein remaining % ≤ 80%) | 18 to 25 | 60 to 80 | A (0% ≤ substrate protein remaining % ≤ 80%) | 10 to 15 | 20 to 25 | 25 to 30 | 80 to 100 |
| Cc1sc2ncnc(C3=CCN(Cc4ccc5c(c4)CN(N4CCC(=O)NC4=O)C5=O)CC3)c2c1C [GT-08159, 1-(5-((4-(5,6-dimethylthieno[2,3-d]pyrimidin-4-yl)-3,6-dihydropyridin-1(2H)-yl)methyl)-1-oxoisoindolin-2-yl)dihydropyrimidine-2,4(1H,3H)-dione] | 0 to 5 | 60 to 80 |  |  | 15 to 20 | 20 to 40 |  |  |  | 10 to 15 | 18 to 25 |  | 10 to 15 | 25 to 30 | 30 to 40 | 80 to 100 |
| Cc1nc(C2CCN(Cc3ccc4c(c3)CN(N3CCC(=O)NC3=O)C4=O)CC2)c2ccsc2n1 [GT-08088, 1-(5-((4-(2-methylthieno[2,3-d]pyrimidin-4-yl)piperidin-1-yl)methyl)-1-oxoisoindolin-2-yl)dihydropyrimidine-2,4(1H,3H)-dione] | 42 to 60 | 42 to 60 | B (80%< substrate protein remaining %≤ 100%) | B (80%< substrate protein remaining %≤ 100%) | 20 to 40 | 20 to 40 | A (0% ≤ substrate protein remaining % ≤ 80%) | A (0% ≤ substrate protein remaining % ≤ 80%) | A (0% ≤ substrate protein remaining % ≤ 80%) | 18 to 25 | 25 to 40 | B (80%< substrate protein remaining %≤ 100%) | 25 to 30 | 25 to 30 | 40 to 60 | 30 to 40 |
| O=C1CCN(N2C(=O)c3ccc(CN4CCN(c5ncnc6sc7c(c56)CCCC7)CC4)cc3C2=O)C(=O)N1 [GT-08102, 2-(2,4-dioxotetrahydropyrimidin-1(2H)-yl)-5-((4-(5,6,7,8-tetrahydrobenzo[4,5]thieno[2,3-d]pyrimidin-4-yl)piperazin-1-yl)methyl)isoindoline-1,3-dione] | 30 to 42 | 30 to 42 |  |  |  |  |  |  |  |  |  |  | 20 to 25 | 20 to 25 | 40 to 60 | 40 to 60 |
| CC(C)c1cc2c(C3=CCN(Cc4ccc5c(c4)CN(N4CCC(=O)NC4=O)C5=O)CC3)ncnc2s1 [GT-08158, 1-(5-((4-(6-isopropylthieno[2,3-d]pyrimidin-4-yl)-3,6-dihydropyridin-1(2H)-yl)methyl)-1-oxoisoindolin-2-yl)dihydropyrimidine-2,4(1H,3H)-dione] | 5 to 10 | 80 to 100 |  |  | 20 to 40 | 40 to 60 |  |  |  | 18 to 25 | 80 to 100 |  | 25 to 30 | 60 to 80 | 30 to 40 | 100 to 110 |
| O=C1CCN(N2Cc3cc(CN4CC=C(c5cccc(Cl)c5Cl)CC4)ccc3C2=O)C(=O)N1 [GT-08054, 1-(5-((4-(2,3-dichlorophenyl)-3,6-dihydropyridin-1(2H)-yl)methyl)-1-oxoisoindolin-2-yl)dihydropyrimidine-2,4(1H,3H)-dione] | 5 to 10 | 80 to 100 | A (0% ≤ substrate protein remaining % ≤ 80%) | A (0% ≤ substrate protein remaining % ≤ 80%) |  |  | A (0% ≤ substrate protein remaining % ≤ 80%) | A (0% ≤ substrate protein remaining % ≤ 80%) | A (0% ≤ substrate protein remaining % ≤ 80%) | 25 to 40 | 80 to 100 | A (0% ≤ substrate protein remaining % ≤ 80%) | 20 to 25 | 40 to 60 | 18 to 25 | 80 to 100 |
| O=C1CCN(N2Cc3cc(CN4CCC(c5ncnc6sccc56)CC4)ccc3C2=O)C(=O)N1 [GT-08082, 1-(1-oxo-5-((4-(thieno[2,3-d]pyrimidin-4-yl)piperidin-1-yl)methyl)isoindolin-2-yl)dihydropyrimidine-2,4(1H,3H)-dione] |  |  | B (80%< substrate protein remaining %≤ 100%) | B (80%< substrate protein remaining %≤ 100%) | 20 to 40 | 20 to 40 | A (0% ≤ substrate protein remaining % ≤ 80%) | A (0% ≤ substrate protein remaining % ≤ 80%) | A (0% ≤ substrate protein remaining % ≤ 80%) | 25 to 40 | 18 to 25 | B (80%< substrate protein remaining %≤ 100%) | 25 to 30 | 20 to 25 | 40 to 60 | 40 to 60 |
| Nc1cccc2c1CN(C1CCC(=O)NC1=O)C2=O (centres unmarked) [lenalidomide, reference compound] | 10 to 20 | 30 to 42 |  |  | 0 to 1 | 5 to 10 |  |  |  | 15 to 18 | 10 to 15 |  | 20 to 25 | 15 to 20 | 10 to 18 | 10 to 18 |
| O=C1CCN(N2C(=O)c3ccc(CN4CCN(c5ncnc6sc(Br)cc56)CC4)cc3C2=O)C(=O)N1 [GT-08096, 5-((4-(6-bromothieno[2,3-d]pyrimidin-4-yl)piperazin-1-yl)methyl)-2-(2,4-dioxotetrahydropyrimidin-1(2H)-yl)isoindoline-1,3-dione] |  |  | B (80%< substrate protein remaining %≤ 100%) | B (80%< substrate protein remaining %≤ 100%) | 40 to 60 | 20 to 40 | A (0% ≤ substrate protein remaining % ≤ 80%) | A (0% ≤ substrate protein remaining % ≤ 80%) | A (0% ≤ substrate protein remaining % ≤ 80%) | 25 to 40 | 18 to 25 | B (80%< substrate protein remaining %≤ 100%) | 30 to 40 | 20 to 25 | 30 to 40 | 30 to 40 |
